In ChEMBL document CHEMBL3885861, “Open TG-GATES”:

Species: Rattus norvegicus
Assay: Open TG-GATES - Regimen: Single
Type: toxicity, organism-based, Sprague-Dawley
Design: regimen Single, gender Male, age 6 weeks
Conditions: in vivo, sc, 0.02 mg/kg, route subcutaneous injection, dose 20 ug/Kg, dose level Low; for APTT / Bas / Eos / Fbg / Hb / Ht / Lym / MCH / MCHC / MCV / Mono / Neu / PT / Plat / RBC / Ret / WBC: tissue Blood; for KIDNEY_L / KIDNEY_R / KIDNEY_TOTAL: tissue Kidney; for LIVER: tissue Liver; for A/G / ALP / ALT / AST / BUN / CRE / Ca / Cl / DBIL / GLC / IP / K / LDH / Na / PL / RALB / TBIL / TC / TG / TP / gamma-GTP: tissue Plasma

In the case of `CC(=O)O.N=C(N)NCCC[C@@H](NC(=O)[C@@H]1CCCN1C(=O)[C@@H]1CSSCCC(=O)N[C@@H](Cc2ccc(O)cc2)C(=O)N[C@@H](Cc2ccccc2)C(=O)N[C@@H](CCC(N)=O)C(=O)N[C@@H](CC(N)=O)C(=O)N1)C(=O)NCC(N)=O` [DESMOPRESSIN ACETATE], the TERMINAL_BW (3 h) is reported as 210.4 g, the APTT (3 h) is reported as 17.8 s and the Bas (3 h) is reported as 0%. For the same molecule, the Eos (3 h) was 1%, the Fbg (3 h) was 236 mg/dL and the Hb (3 h) was 12.9 g/dL. It also gave a Ht (3 h) of 39.5%, a Lym (3 h) of 71.4% and an MCH (3 h) of 22.1 pg. It also gave an MCHC (3 h) of 32.7%, an MCV (3 h) of 67.5 fL and a Mono (3 h) of 8.6%. It also gave a Neu (3 h) of 18.6%, a PT (3 h) of 12.3 s and a Plat (3 h) of 120.4 x10_4/uL. It also gave an RBC (3 h) of 586 x10_4/ul, a Ret (3 h) of 9.1% and a WBC (3 h) of 90.2 x10_2/uL. For the same molecule, the KIDNEY_L (3 h) was 1 g, the KIDNEY_R (3 h) was 1 g and the KIDNEY_TOTAL (3 h) was 1.9 g. It also gave an LIVER (3 h) of 10 g, an A/G (3 h) of 2 and an ALP (3 h) of 1379 IU/L. It also gave an ALT (3 h) of 39.2 IU/L, an AST (3 h) of 68.8 IU/L and a BUN (3 h) of 21.2 mg/dL. The CRE (3 h) was 0.3 mg/dL, the Ca (3 h) was 11.1 mg/dL and the Cl (3 h) was 102.8 meq/L. For the same molecule, the DBIL (3 h) was 0.01 mg/dL, the GLC (3 h) was 194.4 mg/dL and the IP (3 h) was 9.9 mg/dL. The K (3 h) was 4.5 meq/L, the LDH (3 h) was 123.8 IU/L and the Na (3 h) was 135.4 meq/L. The PL (3 h) was 142 mg/dL, the RALB (3 h) was 3.6 g/dL and the TBIL (3 h) was 0.05 mg/dL. It also gave a TC (3 h) of 81.8 mg/dL, a TG (3 h) of 64.4 mg/dL and a TP (3 h) of 5.4 g/dL. The gamma-GTP (3 h) was 1 IU/L, the TERMINAL_BW (6 h) was 202.1 g and the APTT (6 h) was 17.3 s. The Bas (6 h) was 0%, the Eos (6 h) was 1% and the Fbg (6 h) was 232.8 mg/dL. It also gave a Hb (6 h) of 12.9 g/dL, a Ht (6 h) of 39.6% and a Lym (6 h) of 77.8%. For the same molecule, the MCH (6 h) was 21.5 pg, the MCHC (6 h) was 32.6% and the MCV (6 h) was 66.1 fL. It also gave a Mono (6 h) of 8%, a Neu (6 h) of 13.2% and a PT (6 h) of 12.7 s. For the same molecule, the Plat (6 h) was 116.8 x10_4/uL, the RBC (6 h) was 598.6 x10_4/ul and the Ret (6 h) was 9.1%. For the same molecule, the WBC (6 h) was 105.6 x10_2/uL, the KIDNEY_L (6 h) was 1 g and the KIDNEY_R (6 h) was 1 g. For the same molecule, the KIDNEY_TOTAL (6 h) was 2 g, the LIVER (6 h) was 9.1 g and the A/G (6 h) was 1.9. The ALP (6 h) was 1160 IU/L, the ALT (6 h) was 31.2 IU/L and the AST (6 h) was 60 IU/L. For the same molecule, the BUN (6 h) was 25.4 mg/dL, the CRE (6 h) was 0.3 mg/dL and the Ca (6 h) was 10.8 mg/dL. It also gave a Cl (6 h) of 103.6 meq/L, a DBIL (6 h) of 0.014 mg/dL and a GLC (6 h) of 199 mg/dL. The IP (6 h) was 9.6 mg/dL, the K (6 h) was 4.8 meq/L and the LDH (6 h) was 109.4 IU/L. The Na (6 h) was 135 meq/L, the PL (6 h) was 142.8 mg/dL and the RALB (6 h) was 3.5 g/dL. The TBIL (6 h) was 0.074 mg/dL, the TC (6 h) was 85 mg/dL and the TG (6 h) was 62.4 mg/dL. For the same molecule, the TP (6 h) was 5.3 g/dL, the gamma-GTP (6 h) was 1 IU/L and the TERMINAL_BW (9 h) was 202.1 g. For the same molecule, the APTT (9 h) was 16.9 s, the Bas (9 h) was 0% and the Eos (9 h) was 1.4%. The Fbg (9 h) was 229 mg/dL, the Hb (9 h) was 13 g/dL and the Ht (9 h) was 40.1%. It also gave a Lym (9 h) of 72%, an MCH (9 h) of 21.8 pg and an MCHC (9 h) of 32.6%. For the same molecule, the MCV (9 h) was 67.1 fL, the Mono (9 h) was 8.4% and the Neu (9 h) was 18.4%. For the same molecule, the PT (9 h) was 12.8 s, the Plat (9 h) was 118 x10_4/uL and the RBC (9 h) was 598.2 x10_4/ul. The Ret (9 h) was 9.3%, the WBC (9 h) was 94.6 x10_2/uL and the KIDNEY_L (9 h) was 1 g. The KIDNEY_R (9 h) was 0.9 g, the KIDNEY_TOTAL (9 h) was 1.9 g and the LIVER (9 h) was 8.7 g. It also gave an A/G (9 h) of 2.2, an ALP (9 h) of 1148.8 IU/L and an ALT (9 h) of 32.2 IU/L. For the same molecule, the AST (9 h) was 62.6 IU/L, the BUN (9 h) was 24.4 mg/dL and the CRE (9 h) was 0.3 mg/dL. It also gave a Ca (9 h) of 11 mg/dL, a Cl (9 h) of 103.8 meq/L and a DBIL (9 h) of 0.016 mg/dL. It also gave a GLC (9 h) of 198.4 mg/dL, an IP (9 h) of 10.6 mg/dL and a K (9 h) of 5.1 meq/L. For the same molecule, the LDH (9 h) was 143.8 IU/L, the Na (9 h) was 136.4 meq/L and the PL (9 h) was 136.6 mg/dL. For the same molecule, the RALB (9 h) was 3.6 g/dL, the TBIL (9 h) was 0.056 mg/dL and the TC (9 h) was 78.2 mg/dL. The TG (9 h) was 47.6 mg/dL, the TP (9 h) was 5.3 g/dL and the gamma-GTP (9 h) was 0.4 IU/L. For the same molecule, the TERMINAL_BW (24 h) was 220.6 g, the APTT (24 h) was 16.9 s and the Bas (24 h) was 0%. For the same molecule, the Eos (24 h) was 1%, the Fbg (24 h) was 245.2 mg/dL and the Hb (24 h) was 12.8 g/dL. For the same molecule, the Ht (24 h) was 39.6%, the Lym (24 h) was 74% and the MCH (24 h) was 21.3 pg. It also gave an MCHC (24 h) of 32.4%, an MCV (24 h) of 65.9 fL and a Mono (24 h) of 7.8%. The Neu (24 h) was 17.2%, the PT (24 h) was 12.1 s and the Plat (24 h) was 134.8 x10_4/uL. The RBC (24 h) was 601 x10_4/ul, the Ret (24 h) was 10.2% and the WBC (24 h) was 109.6 x10_2/uL. The KIDNEY_L (24 h) was 1 g, the KIDNEY_R (24 h) was 1 g and the KIDNEY_TOTAL (24 h) was 1.9 g. The LIVER (24 h) was 10.3 g, the A/G (24 h) was 2 and the ALP (24 h) was 1595.4 IU/L. The ALT (24 h) was 35 IU/L, the AST (24 h) was 63.8 IU/L and the BUN (24 h) was 15 mg/dL. For the same molecule, the CRE (24 h) was 0.4 mg/dL, the Ca (24 h) was 11.3 mg/dL and the Cl (24 h) was 104.8 meq/L. For the same molecule, the DBIL (24 h) was 0 mg/dL, the GLC (24 h) was 193.2 mg/dL and the IP (24 h) was 7.8 mg/dL. It also gave a K (24 h) of 5.2 meq/L, an LDH (24 h) of 137 IU/L and a Na (24 h) of 137.8 meq/L. It also gave a PL (24 h) of 152.8 mg/dL, an RALB (24 h) of 3.7 g/dL and a TBIL (24 h) of 0.022 mg/dL. For the same molecule, the TC (24 h) was 83.8 mg/dL, the TG (24 h) was 98.6 mg/dL and the TP (24 h) was 5.5 g/dL. It also gave a gamma-GTP (24 h) of 1.2 IU/L.
